Laboratory results reported in the NIST ThermoML archive (doi:10.1021/je060271a).
Where “and” joins values, the source holds several entries; their conditions need not be identical. Equal values may be shown once.

Conditions: Liquid, Vibrating tube method

CCCCC(=O)OCC(COC(=O)CCCC)(COC(=O)CCCC)COC(=O)CCCC [pentaerythritol tetrapentanoate]
Conditions	mass density
283.14 K, 1387.6 kPa	1027.8 kg/m3
283.14 K, 1404.2 kPa	1027.9 kg/m3
283.14 K, 1537.6 kPa	1028 kg/m3
283.14 K, 1581.5 kPa	1028 kg/m3
283.14 K, 1602.2 kPa	1028 kg/m3
283.14 K, 7137 kPa	1031.3 kg/m3
283.14 K, 7155.5 kPa	1031.2 kg/m3
283.14 K, 7173.8 kPa	1031.2 kg/m3
283.14 K, 7196.4 kPa	1031.2 kg/m3
283.14 K, 7215.6 kPa	1031.3 kg/m3
283.14 K, 7545.3 kPa	1031.5 kg/m3
283.14 K, 7570.8 kPa	1031.5 kg/m3
283.14 K, 7613.2 kPa	1031.4 kg/m3
283.14 K, 7932.2 kPa	1031.7 kg/m3
283.14 K, 7959.6 kPa	1031.7 kg/m3
283.14 K, 7982.3 kPa	1031.7 kg/m3
283.14 K, 8033 kPa	1031.8 kg/m3
283.14 K, 8056.3 kPa	1031.7 kg/m3
283.14 K, 8103.7 kPa	1031.7 kg/m3
283.14 K, 8185.7 kPa	1031.9 kg/m3
283.14 K, 9062.7 kPa	1032.4 kg/m3
283.14 K, 9128.2 kPa	1032.3 kg/m3
283.14 K, 9352.3 kPa	1032.5 kg/m3
283.14 K, 9390.6 kPa	1032.6 kg/m3
283.14 K, 9422.3 kPa	1032.5 kg/m3
283.14 K, 9460.6 kPa	1032.5 kg/m3
283.14 K, 9493.3 kPa	1032.5 kg/m3
283.14 K, 9525.9 kPa	1032.5 kg/m3
283.14 K, 9558.8 kPa	1032.6 kg/m3
283.14 K, 10081 kPa	1032.9 kg/m3
283.14 K, 10162 kPa	1032.9 kg/m3
283.14 K, 11953 kPa	1034 kg/m3
283.15 K, 105.8 kPa	1027.1 kg/m3
283.15 K, 106 kPa	1027.1 kg/m3 and 1027.2 kg/m3
283.15 K, 106.2 kPa	1027.2 kg/m3 and 1027.1 kg/m3 and 1027 kg/m3
283.15 K, 106.3 kPa	1027.2 kg/m3
283.15 K, 106.7 kPa	1027.2 kg/m3
283.15 K, 107.6 kPa	1027.1 kg/m3
283.15 K, 108.1 kPa	1027.1 kg/m3
283.15 K, 109.5 kPa	1027 kg/m3
283.15 K, 111.9 kPa	1027.2 kg/m3
283.15 K, 117.3 kPa	1027.1 kg/m3
283.15 K, 124.3 kPa	1027.1 kg/m3
283.15 K, 130.2 kPa	1027.2 kg/m3
283.15 K, 135 kPa	1027.1 kg/m3
283.15 K, 140.8 kPa	1027.1 kg/m3
283.15 K, 147.2 kPa	1027.1 kg/m3
283.15 K, 154.9 kPa	1027.1 kg/m3
283.15 K, 163.9 kPa	1027.1 kg/m3
283.15 K, 178 kPa	1027.2 kg/m3
283.15 K, 192.4 kPa	1027.1 kg/m3
283.15 K, 213.6 kPa	1027.1 kg/m3
283.15 K, 233.4 kPa	1027.1 kg/m3
283.15 K, 247.7 kPa	1027.2 kg/m3
283.15 K, 264 kPa	1027.2 kg/m3
283.15 K, 279.7 kPa	1027.1 kg/m3
283.15 K, 296.5 kPa	1027.1 kg/m3
283.15 K, 313.2 kPa	1027.2 kg/m3
283.15 K, 332 kPa	1027.2 kg/m3
283.15 K, 349 kPa	1027.3 kg/m3
283.15 K, 368.1 kPa	1027.2 kg/m3
283.15 K, 391.4 kPa	1027.3 kg/m3
283.15 K, 406.5 kPa	1027.2 kg/m3
283.15 K, 423.1 kPa	1027.4 kg/m3
283.15 K, 437.7 kPa	1027.3 kg/m3
283.15 K, 452.6 kPa	1027.3 kg/m3
283.15 K, 469.3 kPa	1027.3 kg/m3
283.15 K, 482.3 kPa	1027.4 kg/m3
283.15 K, 495.9 kPa	1027.3 kg/m3
283.15 K, 512.7 kPa	1027.3 kg/m3
283.15 K, 528.4 kPa	1027.4 kg/m3
283.15 K, 544.4 kPa	1027.4 kg/m3
283.15 K, 563 kPa	1027.2 kg/m3
283.15 K, 579.3 kPa	1027.3 kg/m3
283.15 K, 596.9 kPa	1027.5 kg/m3
283.15 K, 618.9 kPa	1027.3 kg/m3
283.15 K, 638.7 kPa	1027.4 kg/m3
283.15 K, 659.6 kPa	1027.5 kg/m3
283.15 K, 682 kPa	1027.5 kg/m3
283.15 K, 710.3 kPa	1027.4 kg/m3
283.15 K, 735.2 kPa	1027.6 kg/m3
283.15 K, 767.3 kPa	1027.5 kg/m3
283.15 K, 795.3 kPa	1027.5 kg/m3
283.15 K, 819.4 kPa	1027.5 kg/m3
283.15 K, 839.6 kPa	1027.6 kg/m3
283.15 K, 865.5 kPa	1027.6 kg/m3
283.15 K, 888.6 kPa	1027.5 kg/m3
283.15 K, 912.5 kPa	1027.6 kg/m3
283.15 K, 938.4 kPa	1027.7 kg/m3
283.15 K, 969.9 kPa	1027.6 kg/m3
283.15 K, 997.3 kPa	1027.6 kg/m3
283.15 K, 1027 kPa	1027.7 kg/m3
283.15 K, 1064.4 kPa	1027.7 kg/m3
283.15 K, 1096.7 kPa	1027.7 kg/m3
283.15 K, 1131.3 kPa	1027.7 kg/m3
283.15 K, 1175 kPa	1027.7 kg/m3
283.15 K, 1212.2 kPa	1027.8 kg/m3
283.15 K, 1243.1 kPa	1027.7 kg/m3
283.15 K, 1258.2 kPa	1027.8 kg/m3
283.15 K, 1275 kPa	1027.8 kg/m3
283.15 K, 1289.5 kPa	1027.7 kg/m3
283.15 K, 1304.2 kPa	1027.8 kg/m3
283.15 K, 1321.8 kPa	1027.8 kg/m3
283.15 K, 1336.7 kPa	1027.8 kg/m3
283.15 K, 1351.8 kPa	1027.9 kg/m3
283.15 K, 1371.1 kPa	1027.9 kg/m3
283.15 K, 1421.6 kPa	1027.8 kg/m3
283.15 K, 1442.1 kPa	1027.9 kg/m3
283.15 K, 1459.8 kPa	1027.9 kg/m3
283.15 K, 1477.5 kPa	1027.9 kg/m3
283.15 K, 1499.7 kPa	1027.9 kg/m3
283.15 K, 1518.7 kPa	1027.9 kg/m3
283.15 K, 1561.4 kPa	1027.9 kg/m3
283.15 K, 1627.3 kPa	1028.1 kg/m3
283.15 K, 1648.9 kPa	1028.1 kg/m3
283.15 K, 1671.6 kPa	1028 kg/m3
283.15 K, 1695.7 kPa	1028 kg/m3
283.15 K, 1719.2 kPa	1028.1 kg/m3
283.15 K, 1748.3 kPa	1028.1 kg/m3
283.15 K, 1772.8 kPa	1028 kg/m3
283.15 K, 1798.3 kPa	1028 kg/m3
283.15 K, 1824.2 kPa	1028.1 kg/m3
283.15 K, 1856.3 kPa	1028.2 kg/m3
283.15 K, 1883 kPa	1028.2 kg/m3
283.15 K, 1911.7 kPa	1028.1 kg/m3
283.15 K, 1940.6 kPa	1028.2 kg/m3
283.15 K, 1976.1 kPa	1028.2 kg/m3
283.15 K, 2006.6 kPa	1028.2 kg/m3
283.15 K, 2039.2 kPa	1028.3 kg/m3
283.15 K, 2073.9 kPa	1028.3 kg/m3
283.15 K, 2114 kPa	1028.3 kg/m3
283.15 K, 2165.9 kPa	1028.3 kg/m3
283.15 K, 2243 kPa	1028.4 kg/m3
283.15 K, 2290.5 kPa	1028.4 kg/m3
283.15 K, 2304.2 kPa	1028.4 kg/m3
283.15 K, 2315.5 kPa	1028.5 kg/m3
283.15 K, 2325.4 kPa	1028.5 kg/m3
283.15 K, 2335.1 kPa	1028.5 kg/m3
283.15 K, 2345 kPa	1028.4 kg/m3
283.15 K, 2356.8 kPa	1028.4 kg/m3
283.15 K, 2367 kPa	1028.5 kg/m3
283.15 K, 2376.9 kPa	1028.5 kg/m3
283.15 K, 2387.1 kPa	1028.5 kg/m3
283.15 K, 2399.6 kPa	1028.4 kg/m3
283.15 K, 2409.9 kPa	1028.5 kg/m3
283.15 K, 2419.9 kPa	1028.6 kg/m3
283.15 K, 2432.6 kPa	1028.5 kg/m3
283.15 K, 2443.2 kPa	1028.4 kg/m3
283.15 K, 2453.4 kPa	1028.5 kg/m3
283.15 K, 2464 kPa	1028.6 kg/m3
283.15 K, 2476.8 kPa	1028.5 kg/m3
283.15 K, 2487.6 kPa	1028.7 kg/m3
283.15 K, 2498.3 kPa	1028.4 kg/m3
283.15 K, 2511.9 kPa	1028.5 kg/m3
283.15 K, 2523 kPa	1028.4 kg/m3
283.15 K, 2534.1 kPa	1028.6 kg/m3
283.15 K, 2545.9 kPa	1028.6 kg/m3
283.15 K, 2559.4 kPa	1028.6 kg/m3
283.15 K, 2570.3 kPa	1028.6 kg/m3
283.15 K, 2581.9 kPa	1028.6 kg/m3
